Data taken from a melting point compilation (Tetko et al.; mined from patent text by program, amines drawn as free bases though some values may be those of a salt).

SMILES	melting point [°C]
COCCN1CCC(O)(c2cc(F)cc(F)c2)C1 (single isomer, unassigned; (-))	130 to 131
Nc1nc(-c2cc(Cl)ccc2Cl)nc(N2CCN(C(c3ccccc3)c3ccccc3)CC2)n1	217 to 218
N#Cc1cccc(-c2ccc(=O)n(Cc3cccc(-c4ncc(O)cn4)c3)n2)c1	245 to 248
O=C(Nc1ccccc1)c1ccc2c(c1)S(=O)(=O)NCN2C1CC1	268 to 270
CNC(=O)CC1CN=C(c2cc3cc(Oc4ccc(S(C)(=O)=O)cc4)cc(OC)c3[nH]2)S1 (stereo not drawn)	125 to 126
NNc1nc(-c2ccccc2)c2cc(Cl)ccc2n1	172 to 173
CN(C)C=Cc1ncc([N+](=O)[O-])n1CCN(C)C	81 to 82
CC1(C)CCC2(CC1S(=O)(=O)c1ccccc1)OCCO2 (stereo not drawn)	113 to 115
CC(=O)OCC1OC(C2=NNC(N)(c3ccc(Cl)c(Cl)c3)O2)C(OC(C)=O)C(OC(C)=O)C1OC(C)=O (stereo not drawn)	180 to 181
CC(C)(C)c1cc(OC[Si](C)(C)Cc2ccccc2)cc(C(C)(C)C)c1O	76 to 77
CCOC(=O)c1nn(-c2ccc(Cl)cc2Cl)c(-c2ccc(Br)cc2)c1CBr	116
CSc1nnc(-c2ccc3occ(-c4cc(F)ccc4F)c3c2)o1	158 to 159
OCCCOc1cccc2cccnc12	126 to 127
CCCCn1nc(C(OC)OC)nc1Cc1ccc(-c2ccccc2-c2nnn[nH]2)nc1	113 to 115
COc1ccc(C(=O)Nc2ccccc2)cc1NS(=O)(=O)c1cccc(Cl)c1	197 to 199
COc1ccc2c(c1)CCC1C2CCC2(C)C(=NNS(=O)(=O)c3ccccc3)CCC12 (stereo not drawn)	183 to 185
COc1cc(OC)cc(C(=O)N2CCc3cc(OCc4ccccc4)c(OC)cc3C2=O)c1	180 to 181
Brc1cnc(SCc2ccccc2)nc1	68 to 69
CCOC(=O)c1cn(N(C)C=O)c2c(F)c(N3CCN(C)CC3)c(F)cc2c1=O	180

SMILES	melting point [°C]
COc1cc(-c2ccc(C=O)cc2)nc(C)n1	114 to 115
COc1cccc(Oc2ccc([N+](=O)[O-])c(C(=O)O)c2)c1	146 to 151
CNC(=O)Nc1nnc(C(F)(F)F)s1	192 to 194
O=C1N=C(c2ccccc2OCC(F)(F)F)N=C2N=CN=C12	261 to 263
COC(=O)Cn1c(SCc2nccc(SCCN3CCOCC3)c2C)nc2ccccc21	128 to 129
COc1cc(=O)c(-c2ccnn2-c2ccccc2)nn1-c1cccc(C(F)(F)F)c1	139 to 141
COc1ccc(C=O)c(Br)c1Oc1ccc([N+](=O)[O-])cc1	115 to 117
COC(=O)c1occc1NC(N)=O	208
CC(C)n1nc2cccc([N+](=O)[O-])c2n1	65 to 67
COC1CN(CC2CCCO2)CCC1NC(=O)c1cc(Cl)c(N)c2c1OCCC2 (stereo not drawn)	158
CCOC(=O)c1cn(-c2nc(N)c(F)cc2F)c2c(F)c(F)c(F)c(F)c2c1=O	223 to 230
COc1nc(Cc2ccccc2[N+](=O)[O-])nc(OC)n1	91.6 to 92.3
O=C(NC(=O)c1c(Cl)cccc1Cl)Nc1cc(Br)c(Br)cc1C(F)(F)F	204
C[C@@H](n1ccn(-c2ccc(OCC(F)(F)C(F)F)cc2)c1=O)[C@](O)(CO)c1ccccc1F	166 to 167
Nc1ccc(OCCCCCOc2ccc(N)cc2)cc1	78 to 79
CSc1nn2c(NCCN(C)C)cc(C)nc2c1S(=O)(=O)c1ccccc1	190 to 191
CS(=O)(=O)c1ccc(Cc2n[nH]c3c2c(=O)n(-c2ccccc2)c2ncccc32)cc1	312
CCCCC1=NC2(CCCC2)C(=O)N1Cc1ccc(-c2ccccc2S(=O)(=O)Nc2onc(C)c2C)c(CC(C)C)c1	58 to 61
CSc1ccc(-c2cc(-c3nc4ccccc4c(=O)n3-c3ccc(C)cc3)sc2N2CCOCC2)cc1	238 to 240
